ChEMBL document CHEMBL1201862, “PubChem BioAssay data set” (2004)
Calls of active or inactive are those of the source.

Columns and labels:
[1] = molecular target: T1, Protein Tat (Human immunodeficiency virus type 1 group M subtype B (isolate HXB2)(HIV-1), UniProt P04608); assay type: functional;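 also: tat binding to TAR RNA read out by fluorescence polarization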
T1 sequence (P04608 whole entry): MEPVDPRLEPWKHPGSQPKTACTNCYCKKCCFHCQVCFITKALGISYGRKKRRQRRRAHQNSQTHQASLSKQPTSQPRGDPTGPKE

[2] = HIV-1 Vif–A3G interaction blockers – biochemical, TR-FRET, GST-Vif 1-94, biotin-A3G peptide, dose response retest, primary screen (AID 1117319); assay type: functional;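 also: TR-FRET signal of purified GST-Vif binding a biotinylated A3G peptide; inhibitors lower the FRET signal by blocking Vif and A3G binding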
[3] = viability loss in Vero cells – cytotoxicity control for Vif-APOBEC3G degradation inhibitor project, dose response (AID 1117358); assay type: functional; settings: Vero
[4] = molecular target: T2, Estrogen receptor beta (Homo sapiens, UniProt Q92731);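 also: recombinant ER-beta bound to coactivator SRC1 peptide in presence of estradiol agonist; inhibitors block coactivator peptide binding and lower the FRET signal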
T2 sequence (Q92731 whole entry): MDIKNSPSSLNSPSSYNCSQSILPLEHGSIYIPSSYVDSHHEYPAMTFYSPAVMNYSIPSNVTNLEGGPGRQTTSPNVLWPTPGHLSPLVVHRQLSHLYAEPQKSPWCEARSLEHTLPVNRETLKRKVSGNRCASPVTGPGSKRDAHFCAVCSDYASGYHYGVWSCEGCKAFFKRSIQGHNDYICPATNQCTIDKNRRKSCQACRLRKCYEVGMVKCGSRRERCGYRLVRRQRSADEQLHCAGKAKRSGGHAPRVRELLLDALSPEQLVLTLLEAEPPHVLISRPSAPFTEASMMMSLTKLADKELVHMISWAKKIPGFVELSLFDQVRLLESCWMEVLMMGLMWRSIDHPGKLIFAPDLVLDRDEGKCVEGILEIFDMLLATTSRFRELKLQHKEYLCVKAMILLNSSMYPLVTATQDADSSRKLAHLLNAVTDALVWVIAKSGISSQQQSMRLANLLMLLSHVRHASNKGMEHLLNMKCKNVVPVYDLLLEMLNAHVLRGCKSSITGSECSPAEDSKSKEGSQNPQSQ

[5] = molecular target: T2, Estrogen receptor beta; assay: blockers of SRC-3 recruitment to ERβ – biochemical, ELISA, streptavidin-HRP readout, orthogonal assay, confirmation (AID 1060)
[6] = molecular target: NAD-dependent protein deacylase sirtuin-5, mitochondrial (Homo sapiens, UniProt Q9NXA8); assay: sirtuin-5 deacylation blockers, concentration series – biochemical, fluorescence imaging, cherry-pick, set 5, dose response (AID 720591);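 also: desuccinylation of succinyl peptide AMC substrate read as fluorescence after trypsin release; potency of inhibitors that lower fluorescence and may act on trypsin instead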
Chain of NAD-dependent protein deacylase sirtuin-5, mitochondrial (Q9NXA8 whole entry): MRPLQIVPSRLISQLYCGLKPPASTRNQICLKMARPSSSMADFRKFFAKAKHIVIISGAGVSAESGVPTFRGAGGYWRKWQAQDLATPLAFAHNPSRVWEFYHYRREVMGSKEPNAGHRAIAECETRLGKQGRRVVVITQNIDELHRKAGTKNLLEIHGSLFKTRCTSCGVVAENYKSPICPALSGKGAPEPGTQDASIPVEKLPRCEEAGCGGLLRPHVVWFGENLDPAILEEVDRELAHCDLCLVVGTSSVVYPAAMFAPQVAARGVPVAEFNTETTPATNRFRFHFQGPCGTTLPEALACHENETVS

[7] = IC50 of Artemis nuclease activity blockers – biochemical, fluorescence intensity, dose response (AID 720701); assay type: functional;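 also: Artemis endonuclease enzyme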
[8] = molecular target: Heat shock protein HSP 90-alpha (Homo sapiens, UniProt P07900); assay type: functional, organism-based
[9] = molecular target: T3, Protein RecA (Mycobacterium tuberculosis, UniProt P9WHJ3); assay: Fluorescence Cell-Free Homogeneous Dose Retest to Identify Inhibitors of RecA-Intein Splicing Activity. [Related pubchem assays (depositor defined):AID2097, AID2223, AID489010, AID492950]; assay type: functional
T3 sequence (P9WHJ3 whole entry): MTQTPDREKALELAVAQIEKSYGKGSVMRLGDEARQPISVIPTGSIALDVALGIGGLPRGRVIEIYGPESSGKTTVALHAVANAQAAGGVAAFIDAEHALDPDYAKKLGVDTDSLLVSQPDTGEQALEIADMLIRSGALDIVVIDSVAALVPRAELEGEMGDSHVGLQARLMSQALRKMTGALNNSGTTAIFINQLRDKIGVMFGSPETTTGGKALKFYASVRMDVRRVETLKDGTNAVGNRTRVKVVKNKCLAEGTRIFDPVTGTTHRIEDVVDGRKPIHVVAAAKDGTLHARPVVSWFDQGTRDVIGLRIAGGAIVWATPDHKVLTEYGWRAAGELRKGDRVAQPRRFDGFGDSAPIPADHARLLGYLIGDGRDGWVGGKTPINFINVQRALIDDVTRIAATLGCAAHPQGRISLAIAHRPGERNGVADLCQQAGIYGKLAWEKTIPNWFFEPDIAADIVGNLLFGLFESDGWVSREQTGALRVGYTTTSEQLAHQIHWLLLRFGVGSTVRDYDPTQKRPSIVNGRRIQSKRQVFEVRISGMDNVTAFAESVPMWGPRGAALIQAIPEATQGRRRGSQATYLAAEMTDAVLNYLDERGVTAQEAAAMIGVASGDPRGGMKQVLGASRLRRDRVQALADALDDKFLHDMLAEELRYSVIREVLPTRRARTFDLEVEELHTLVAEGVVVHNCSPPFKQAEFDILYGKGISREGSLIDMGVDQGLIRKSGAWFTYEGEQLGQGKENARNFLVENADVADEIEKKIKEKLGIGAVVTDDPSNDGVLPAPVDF

[10] = molecular target: T4, Replicative DNA helicase DnaB (Mycobacterium tuberculosis, UniProt P9WMR3); assay: DnaB intein splicing inhibitors, dose response, biochemical, cell-free fluorescence (AID 449749); assay type: functional
T4 sequence (P9WMR3 whole entry): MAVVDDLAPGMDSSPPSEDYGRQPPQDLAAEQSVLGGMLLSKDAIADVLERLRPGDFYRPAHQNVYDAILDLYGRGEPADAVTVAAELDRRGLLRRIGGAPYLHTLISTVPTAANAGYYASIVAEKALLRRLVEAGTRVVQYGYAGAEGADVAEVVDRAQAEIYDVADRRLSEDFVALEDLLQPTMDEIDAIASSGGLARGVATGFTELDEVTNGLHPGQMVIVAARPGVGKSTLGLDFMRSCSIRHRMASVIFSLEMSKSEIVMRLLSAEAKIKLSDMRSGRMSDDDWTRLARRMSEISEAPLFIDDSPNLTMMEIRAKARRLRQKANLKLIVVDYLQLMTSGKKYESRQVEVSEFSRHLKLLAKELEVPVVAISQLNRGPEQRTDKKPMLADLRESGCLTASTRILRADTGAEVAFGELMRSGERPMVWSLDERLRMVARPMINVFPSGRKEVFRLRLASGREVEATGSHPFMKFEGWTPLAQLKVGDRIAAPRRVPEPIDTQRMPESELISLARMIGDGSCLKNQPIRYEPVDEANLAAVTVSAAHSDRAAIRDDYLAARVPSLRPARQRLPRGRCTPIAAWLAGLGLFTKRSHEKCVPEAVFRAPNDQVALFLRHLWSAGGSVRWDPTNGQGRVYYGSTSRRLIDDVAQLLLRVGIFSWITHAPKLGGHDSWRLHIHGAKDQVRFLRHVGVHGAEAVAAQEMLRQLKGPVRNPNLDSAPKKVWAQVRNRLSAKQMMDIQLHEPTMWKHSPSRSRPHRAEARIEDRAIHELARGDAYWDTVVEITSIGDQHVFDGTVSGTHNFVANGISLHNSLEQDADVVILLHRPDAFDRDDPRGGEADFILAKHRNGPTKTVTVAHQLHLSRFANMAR

[11] = molecular target: T5, Apoptotic protease-activating factor 1 (Homo sapiens, UniProt O14727); assay type: functional
T5 sequence (O14727 whole entry): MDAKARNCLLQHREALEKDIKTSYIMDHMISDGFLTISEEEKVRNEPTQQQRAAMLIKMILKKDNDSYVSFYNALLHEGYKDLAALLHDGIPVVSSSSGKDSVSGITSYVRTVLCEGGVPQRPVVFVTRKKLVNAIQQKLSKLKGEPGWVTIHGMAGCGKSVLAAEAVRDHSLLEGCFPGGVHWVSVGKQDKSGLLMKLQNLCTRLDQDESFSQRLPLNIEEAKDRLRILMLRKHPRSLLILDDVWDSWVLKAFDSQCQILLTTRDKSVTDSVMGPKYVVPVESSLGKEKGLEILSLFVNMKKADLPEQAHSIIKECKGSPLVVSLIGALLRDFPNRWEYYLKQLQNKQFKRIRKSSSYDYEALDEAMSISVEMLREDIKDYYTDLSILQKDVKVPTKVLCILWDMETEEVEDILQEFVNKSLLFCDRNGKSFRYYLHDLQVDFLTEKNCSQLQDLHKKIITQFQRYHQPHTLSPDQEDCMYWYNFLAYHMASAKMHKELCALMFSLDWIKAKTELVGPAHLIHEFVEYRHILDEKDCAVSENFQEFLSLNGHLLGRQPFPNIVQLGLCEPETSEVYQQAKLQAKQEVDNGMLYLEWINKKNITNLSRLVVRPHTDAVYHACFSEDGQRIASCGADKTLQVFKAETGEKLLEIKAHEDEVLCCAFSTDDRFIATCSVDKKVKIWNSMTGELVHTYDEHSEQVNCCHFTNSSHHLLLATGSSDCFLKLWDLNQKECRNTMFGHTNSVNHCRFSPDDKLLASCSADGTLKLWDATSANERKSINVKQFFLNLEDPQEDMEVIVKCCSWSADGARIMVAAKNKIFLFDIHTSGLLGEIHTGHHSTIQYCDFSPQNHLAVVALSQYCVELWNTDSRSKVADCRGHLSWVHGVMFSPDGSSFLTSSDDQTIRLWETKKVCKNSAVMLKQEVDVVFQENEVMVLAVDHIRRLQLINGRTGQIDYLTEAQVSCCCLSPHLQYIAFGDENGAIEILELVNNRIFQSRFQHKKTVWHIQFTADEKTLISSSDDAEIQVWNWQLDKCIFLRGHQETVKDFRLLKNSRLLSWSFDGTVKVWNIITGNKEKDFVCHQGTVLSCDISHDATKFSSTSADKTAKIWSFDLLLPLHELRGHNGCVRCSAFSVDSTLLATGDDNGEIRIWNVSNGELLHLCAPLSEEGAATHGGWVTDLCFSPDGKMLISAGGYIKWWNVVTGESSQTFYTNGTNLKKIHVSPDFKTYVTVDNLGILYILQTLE

[12] = molecular target: T6, Low molecular weight phosphotyrosine protein phosphatase (Homo sapiens, UniProt P24666); assay: inhibition of human LMPTP enzyme activity – biochemical, absorbance, pNPP substrate, LMPTP-A isoform, set 2, orthogonal assay, dose response (AID 743308); assay type: functional
T6 sequence (P24666 whole entry): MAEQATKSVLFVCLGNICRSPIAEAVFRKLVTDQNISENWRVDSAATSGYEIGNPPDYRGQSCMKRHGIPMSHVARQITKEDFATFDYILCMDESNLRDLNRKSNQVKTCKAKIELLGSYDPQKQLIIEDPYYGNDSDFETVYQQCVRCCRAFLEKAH

[13] = molecular target: T6, Low molecular weight phosphotyrosine protein phosphatase; assay: inhibition of LMPTP-A enzymatic activity – biochemical, OMFP substrate, fluorescence intensity, set 2, dose response (AID 743307); assay type: functional
[14] = molecular target: T7, Phospholipase D1 (Homo sapiens, UniProt Q13393); assay: PLD1 Cellular Concentration Response Study.; assay type: functional
T7 sequence (Q13393 whole entry): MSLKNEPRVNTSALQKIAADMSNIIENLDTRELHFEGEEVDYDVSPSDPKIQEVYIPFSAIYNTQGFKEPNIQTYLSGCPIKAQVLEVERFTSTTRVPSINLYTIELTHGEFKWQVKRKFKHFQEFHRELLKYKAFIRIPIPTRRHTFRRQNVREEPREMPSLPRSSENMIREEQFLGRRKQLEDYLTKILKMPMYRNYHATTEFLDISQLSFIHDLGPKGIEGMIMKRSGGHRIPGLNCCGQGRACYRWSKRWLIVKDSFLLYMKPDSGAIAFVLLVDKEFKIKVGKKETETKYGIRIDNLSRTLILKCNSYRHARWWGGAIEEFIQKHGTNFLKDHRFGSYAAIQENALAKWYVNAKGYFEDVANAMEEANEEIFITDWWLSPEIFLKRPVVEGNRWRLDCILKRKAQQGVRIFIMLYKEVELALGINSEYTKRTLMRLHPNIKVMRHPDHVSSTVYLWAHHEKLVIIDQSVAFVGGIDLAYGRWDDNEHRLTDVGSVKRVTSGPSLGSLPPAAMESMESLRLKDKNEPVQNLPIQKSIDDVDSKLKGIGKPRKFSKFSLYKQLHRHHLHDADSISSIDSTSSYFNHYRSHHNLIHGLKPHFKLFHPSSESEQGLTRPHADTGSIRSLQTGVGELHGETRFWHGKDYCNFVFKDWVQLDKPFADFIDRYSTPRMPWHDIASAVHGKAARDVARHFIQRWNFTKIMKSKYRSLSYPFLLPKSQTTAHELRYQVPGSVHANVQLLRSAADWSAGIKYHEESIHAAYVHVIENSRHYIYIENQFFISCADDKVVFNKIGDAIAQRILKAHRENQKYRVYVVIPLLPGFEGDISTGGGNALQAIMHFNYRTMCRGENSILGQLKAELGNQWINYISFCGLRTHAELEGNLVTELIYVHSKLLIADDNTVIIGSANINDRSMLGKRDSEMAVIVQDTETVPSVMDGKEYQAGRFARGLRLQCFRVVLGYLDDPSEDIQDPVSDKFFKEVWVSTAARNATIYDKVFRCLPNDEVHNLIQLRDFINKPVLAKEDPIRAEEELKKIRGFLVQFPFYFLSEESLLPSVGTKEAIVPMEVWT

[15] = molecular target: Phospholipase D2 (Homo sapiens, UniProt O14939); assay: PLD2 Cellular Concentration Response Study.; assay type: functional
Chain of Phospholipase D2 (O14939 whole entry): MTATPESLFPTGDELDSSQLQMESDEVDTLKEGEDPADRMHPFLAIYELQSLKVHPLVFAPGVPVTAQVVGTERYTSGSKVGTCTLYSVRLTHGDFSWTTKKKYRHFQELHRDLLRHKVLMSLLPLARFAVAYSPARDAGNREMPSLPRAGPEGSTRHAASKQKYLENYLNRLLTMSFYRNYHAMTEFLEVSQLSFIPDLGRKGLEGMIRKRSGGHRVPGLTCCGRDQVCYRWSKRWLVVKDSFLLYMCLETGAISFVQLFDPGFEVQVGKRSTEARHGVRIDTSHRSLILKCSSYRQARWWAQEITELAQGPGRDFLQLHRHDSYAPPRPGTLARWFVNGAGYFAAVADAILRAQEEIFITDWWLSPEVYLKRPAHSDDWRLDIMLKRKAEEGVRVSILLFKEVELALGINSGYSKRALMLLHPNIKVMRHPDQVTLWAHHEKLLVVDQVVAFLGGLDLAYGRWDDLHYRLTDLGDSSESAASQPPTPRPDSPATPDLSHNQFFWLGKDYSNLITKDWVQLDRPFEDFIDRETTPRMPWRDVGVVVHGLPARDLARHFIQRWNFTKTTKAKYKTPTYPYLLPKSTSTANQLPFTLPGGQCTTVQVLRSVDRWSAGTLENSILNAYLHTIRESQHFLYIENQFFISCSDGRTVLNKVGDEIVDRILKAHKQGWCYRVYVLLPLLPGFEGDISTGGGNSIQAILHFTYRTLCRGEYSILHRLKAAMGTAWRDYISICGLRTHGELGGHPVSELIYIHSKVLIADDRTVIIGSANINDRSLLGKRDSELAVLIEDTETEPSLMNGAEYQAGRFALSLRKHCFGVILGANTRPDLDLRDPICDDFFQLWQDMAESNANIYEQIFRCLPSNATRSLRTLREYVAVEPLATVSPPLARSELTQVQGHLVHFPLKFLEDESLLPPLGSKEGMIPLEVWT

[16] = molecular target: RNA-editing ligase 1, mitochondrial (Trypanosoma brucei brucei, UniProt P86926); assay: inhibition of trypanosome RNA editing ligase – biochemical, fluorescence, Trypanosoma brucei, dose response (AID 1117295); assay type: functional
Chain of RNA-editing ligase 1, mitochondrial (P86926 whole entry): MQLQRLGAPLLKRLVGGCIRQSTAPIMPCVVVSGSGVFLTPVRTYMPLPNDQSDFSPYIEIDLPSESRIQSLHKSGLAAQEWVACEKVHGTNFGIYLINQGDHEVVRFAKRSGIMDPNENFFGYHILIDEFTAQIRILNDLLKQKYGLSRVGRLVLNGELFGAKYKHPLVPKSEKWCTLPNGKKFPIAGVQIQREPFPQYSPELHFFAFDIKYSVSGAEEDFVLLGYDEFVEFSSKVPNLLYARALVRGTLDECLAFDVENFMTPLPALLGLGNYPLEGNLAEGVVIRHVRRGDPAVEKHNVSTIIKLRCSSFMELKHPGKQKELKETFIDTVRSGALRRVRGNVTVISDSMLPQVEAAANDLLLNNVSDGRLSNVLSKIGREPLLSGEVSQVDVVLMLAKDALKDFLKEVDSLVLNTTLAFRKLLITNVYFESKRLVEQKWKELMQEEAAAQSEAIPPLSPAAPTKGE

[17] = molecular target: G-protein coupled receptor 183 (Homo sapiens, UniProt P32249); assay: SAR confirmation of small molecule antagonists of the EBI2 receptor via a luminescent beta-arrestin assa.; assay type: functional
Chain of G-protein coupled receptor 183 (P32249 whole entry): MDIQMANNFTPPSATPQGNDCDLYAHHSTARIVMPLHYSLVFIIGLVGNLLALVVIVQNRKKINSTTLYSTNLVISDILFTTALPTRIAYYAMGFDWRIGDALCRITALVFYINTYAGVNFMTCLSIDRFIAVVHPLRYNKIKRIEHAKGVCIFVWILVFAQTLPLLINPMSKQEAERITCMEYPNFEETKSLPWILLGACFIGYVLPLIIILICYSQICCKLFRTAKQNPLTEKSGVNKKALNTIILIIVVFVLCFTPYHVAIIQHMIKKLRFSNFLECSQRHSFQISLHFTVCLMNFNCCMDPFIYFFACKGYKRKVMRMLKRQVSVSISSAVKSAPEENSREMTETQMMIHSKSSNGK

With CCc1nc(OCc2ccco2)c2sc3nc4c(cc3c2n1)COC(C)(C)C4 the IC50 [1] was > 100 µM (active), the IC50 [2] was > 100 µM (active) and the CC50 [3] was > 40 µM (active).
With Cc1noc(C)c1CSCC(=O)OCC(=O)Nc1sccc1C#N the IC50 [4] was 15.8 µM (active) and the IC50 [5] was < 77 µM (not active).
For C=C(Cl)COc1ccc2c(CCC)cc(=O)oc2c1, the CC50 [3] was > 40 µM (active).
For CCCn1c(SCC(=O)Nc2ccc3c(c2)OCO3)nc2c1c(=O)n(C)c(=O)n2C, the AC50 [6] was > 30 µM (inactive).
For O=C(O)c1ccccc1NS(=O)(=O)c1ccccc1C(F)(F)F, the IC50 [2] was > 100 µM (active).
In the case of CC(C)CCN1C(=O)c2ccccc2C1c1nnnn1-c1ccc2c(c1)OCCO2 (stereo not given), the AC50 [6] is reported as > 30 µM (inactive).
With Cc1[nH]n(-c2ccccc2)c(=O)c1C(C[N+](=O)[O-])c1ccc(Br)cc1 (stereo not given) the IC50 [7] was > 20 µM (inactive), the AC50 [8] was 7.85 µM (active) and the EC50 [9] was 5.73 µM (active). For the same compound, the AC50 [10] was 7.55 µM (active) and the IC50 [11] was 4.17 µM (active).
For c1ccc(-c2cc(NCCCN3CCOCC3)c3ccccc3n2)cc1, the IC50 [12] was 12.6 µM (active) and the IC50 [13] was 7.68 µM (active).
For O=C(NCCN1CCC2(CC1)C(=O)NCN2Cc1cccc2ccccc12)c1ccc2ccccc2c1, the IC50 [14] was 1.05 µM (active) and the IC50 [15] was 0.16 µM (active).
For COC(=O)C1=C(C)N(Cc2ccccc2C(F)(F)F)C(NCc2ccc(C(F)(F)F)cc2)=NC1c1ccc(Cl)cc1 (stereo not given), the IC50 [16] was > 96.6 µM (inactive).
In the case of c1ccc(-c2nc(N3CCCCCC3)c3ccccc3n2)cc1, the IC50 [12] is reported as > 80 µM (inactive) and the IC50 [13] is reported as 72.2 µM (inactive).
In the case of O=C(/C=C/c1ccc(Br)cc1)N1CCN(Cc2ccc(Cl)cc2)CC1, the IC50 [17] is reported as 0.00103 µM (active).
For O=C(Cc1ccc(Br)cc1)N1CCN(Cc2ccc(Cl)cc2)CC1, the IC50 [17] was > 1 µM (inactive).
For O=C(NCCN1CCC2(CC1)C(=O)NCN2Cc1cccnc1)c1ccc2ccccc2c1Br, the IC50 [14] was 20 µM (active) and the IC50 [15] was 1.24 µM (active).
